The text below walks through data of paper PMC5811606, “Characterization of ^111In-labeled Glucose-Dependent Insulinotropic Polypeptide as a Radiotracer for Neuroendocrine Tumors” (Scientific Reports, 2018).

This assay has as its target T1, GIPR on the islets of Langerhans (Mus musculus, UniProt Q0P543).
T1 construct: Islets of Langerhans were isolated from donor C3H mice by collagenase digestion; from tissue; host or cells: isolated islets of Langerhans from C3H mice
T1 sequence (Q0P543 19-460): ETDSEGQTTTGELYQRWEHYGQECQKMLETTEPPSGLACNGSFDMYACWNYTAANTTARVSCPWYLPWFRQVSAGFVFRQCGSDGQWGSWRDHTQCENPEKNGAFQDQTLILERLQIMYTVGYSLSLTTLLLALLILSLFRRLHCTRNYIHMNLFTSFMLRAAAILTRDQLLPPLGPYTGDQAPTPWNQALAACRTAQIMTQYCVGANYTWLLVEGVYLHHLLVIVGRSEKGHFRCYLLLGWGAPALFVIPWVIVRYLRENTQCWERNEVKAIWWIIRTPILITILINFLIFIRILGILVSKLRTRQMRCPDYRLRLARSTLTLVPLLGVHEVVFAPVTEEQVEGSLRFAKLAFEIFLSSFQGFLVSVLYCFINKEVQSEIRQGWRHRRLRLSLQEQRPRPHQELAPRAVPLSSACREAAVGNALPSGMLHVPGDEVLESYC
Kind of assay: In vitro binding to isolated islets. The following applies: islets of C3H mice, 24 hours, 37 °C, + 25 µg unlabeled GIP1-42, mean ± SD. As to the method: Islets of Langerhans were isolated from donor C3H mice by collagenase digestion as follows. Mice were euthanized by CO2/O2 suffocation and 2 ml of ice cold RPMI 1640 containing 1 mg/ml collagenase type V (Sigma Aldrich) were infused via the pancreatic duct in situ. After dissection, the perfused pancreata were collected in serum free medium containing collagenase and kept on ice until digestion. Pancreata were digested for 12 min at 37 °C. Digestion was stopped by adding RPMI medium containing 10% FCS, 2 mM L-glutamine, 100 U/ml penicillin and 100 U/ml streptomycin (complete RPMI). After washing, digested pancreata were passed through a mesh. Afterwards, islets were purified on a discontinuous Ficoll gradient (densities: 1.108; 1.096; 1.037; Cellgro by Mediatech Inc, Manassas, VA, USA) by centrifugation at 625 × g for 16 min without brake. Islets were collected from the intersection of the second and third layer and remaining Ficoll was removed by washing with complete RPMI. Isolated islets were cultured overnight in complete RPMI medium in a humidified atmosphere containing 5% CO2 at 37 °C.
After overnight recovery from the isolation procedure, islets from the donor C3H mice were collected, counted and resuspended in complete RPMI. […] After incubation, islets were washed extensively with binding buffer and islet-associated radioactivity was measured in a well type gamma counter.

As for `CC[C@H](C)[C@H](NC(=O)[C@H](CO)NC(=O)[C@H](Cc1ccc(O)cc1)NC(=O)[C@H](CC(=O)O)NC(=O)[C@H](CO)NC(=O)[C@@H](NC(=O)[C@H](Cc1ccccc1)NC(=O)[C@@H](NC(=O)CNC(=O)[C@H](CCC(=O)O)NC(=O)[C@H](C)NC(=O)[C@H](Cc1ccc(O)cc1)NC(C)=O)[C@@H](C)O)[C@@H](C)CC)C(=O)N[C@@H](C)C(=O)N[C@@H](CCSC)C(=O)N[C@@H](CC(=O)O)C(=O)N[C@@H](CCCCN)C(=O)N[C@H](C(=O)N[C@@H](Cc1c[nH]cn1)C(=O)N[C@@H](CCC(N)=O)C(=O)N[C@@H](CCC(N)=O)C(=O)N[C@@H](CC(=O)O)C(=O)N[C@@H](Cc1ccccc1)C(=O)N[C@H](C(=O)N[C@@H](CC(N)=O)C(=O)N[C@@H](Cc1c[nH]c2ccccc12)C(=O)N[C@@H](CC(C)C)C(=O)N[C@@H](CC(C)C)C(=O)N[C@@H](C)C(=O)N[C@@H](CCC(N)=O)C(=O)N[C@@H](CCCCN)C(=O)NCC(=O)N[C@@H](CCCCN)C(=O)N[C@@H](CCCCN)C(=O)N[C@@H](CC(N)=O)C(=O)N[C@@H](CC(=O)O)C(=O)N[C@@H](Cc1c[nH]c2ccccc12)C(=O)N[C@@H](CCCCNC(=O)CN(CCN(CCN(CC(=O)O)CC(=O)O)CC(=O)O)CC(=O)O)C(=O)N[C@@H](Cc1c[nH]cn1)C(=O)N[C@@H](CC(N)=O)C(=O)N[C@H](C(=O)N[C@H](C(=O)N[C@@H](CCC(N)=O)C(=O)O)[C@@H](C)O)[C@@H](C)CC)C(C)C)[C@@H](C)CC` [[Lys^37(^111In-DTPA)]N-acetyl-GIP1-42, metal not drawn], the “tracer bound to 200 isolated islets with excess unlabeled GIP1-42” value worked out at 0.03 ± 0.01 fmol.
